In publication PMC10079235 (PLOS Neglected Tropical Diseases, 2023):
Read-outs that look alike come from different tables or passages of the source.

Test system: Cryptosporidium parvum
Assay: Anti-cryptosporidial efficacy assay (44-h infection/qRT-PCR)
Conditions: for On-target (Eon) rate at EC50: Eq 2; for Eoff, proportion of off-parasite-target effect / Eon, proportion of on-parasite-target effect: MDR1(PTX) vs. NC model, Eq 3 and 4; for EC50: read-out: Antiparasitic efficacy (EC50)

Substance: Ivermectin
- On-target (Eon) rate at EC50 (MDR1(PTX) cell model): 77.1%
- On-target (Eon) rate at EC50 (MDR1(PTX) cell model, listed as IVM): 77.1%
- Off-target (Eoff) rate at EC50 (MDR1(PTX) cell model, from Pct changes of EC50 and TC50 (Eq 1)): 22.9%
- Action on parasite target (on-target) conclusion (MDR1-transgenic host cell model): partially on-target
- Eoff, proportion of off-parasite-target effect (at EC10): 18.40%
- Eon, proportion of on-parasite-target effect (at EC10): 81.60%
- Eon, proportion of on-parasite-target effect (at EC10, listed as IVM): 81.6%
- Eoff, proportion of off-parasite-target effect (at EC20): 20.10%
- Eon, proportion of on-parasite-target effect (at EC20): 79.90%
- Eoff, proportion of off-parasite-target effect (at EC30): 21.20%
- Eon, proportion of on-parasite-target effect (at EC30): 78.80%
- Eoff, proportion of off-parasite-target effect (at EC40): 22.10%
- Eon, proportion of on-parasite-target effect (at EC40): 77.90%
- Eoff, proportion of off-parasite-target effect (at EC50): 22.8%
- Eon, proportion of on-parasite-target effect (at EC50): 77.2%
- Eoff, proportion of off-parasite-target effect (at EC60): 23.60%
- Eon, proportion of on-parasite-target effect (at EC60): 76.40%
- Eoff, proportion of off-parasite-target effect (at EC70): 24.40%
- Eon, proportion of on-parasite-target effect (at EC70): 75.60%
- Eoff, proportion of off-parasite-target effect (at EC80): 25.30%
- Eon, proportion of on-parasite-target effect (at EC80): 74.70%
- Eoff, proportion of off-parasite-target effect (at EC90): 26.60%
- Eon, proportion of on-parasite-target effect (at EC90): 73.40%
- Eon, proportion of on-parasite-target effect (at EC90, listed as IVM): 73.4%
- EC50 (C. parvum cultured in MDR1(PTX) host cells): 4.25 µM
- EC50 (C. parvum cultured in NC host cells): 3.23 µM
- EC50 (C. parvum cultured in WT host cells): 3.16 µM
